Results reported in PMC2777267, “Crystal Structures of Wzb of Escherichia coli and CpsB of Streptococcus pneumoniae, Representatives of Two Families of Tyrosine Phosphatases that Regulate Capsule Assembly” (Journal of Molecular Biology, 2009).

Columns and labels:
Cps4B [1] = target: T1, Cps4B (Streptococcus pneumoniae, UniProt Q9AHD4); assay: absorbance at […] nm; format: biochemical; set-up: gene cpsB; recombinant, produced as described earlier; PHP-fold metal-dependent phosphatase with three active-site metals; 1 molecule per asymmetric unit; settings: 25 mM Tris-Cl pH 8.0, 50 mM NaCl, 2.5 mM pNPP, room temperature; 0.5 mM Cu2+, Co2+ or Mn2+ added
Cps4B [2] = target: T1, Cps4B; set-up: gene cpsB; settings: active site, bound to three metals, Arg139 and Arg206; soak up to 50 mM phosphate

T1 sequence (Q9AHD4 whole entry, looked up): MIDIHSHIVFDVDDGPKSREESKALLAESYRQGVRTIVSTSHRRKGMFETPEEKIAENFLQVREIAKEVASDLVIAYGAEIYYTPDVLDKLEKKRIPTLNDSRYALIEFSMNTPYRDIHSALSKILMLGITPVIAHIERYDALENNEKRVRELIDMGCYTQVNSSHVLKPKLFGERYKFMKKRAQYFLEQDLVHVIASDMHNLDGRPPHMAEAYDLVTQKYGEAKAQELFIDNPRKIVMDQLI

Compound | absorbance at 405 nm (Cps4B [1]) | X-ray crystal structure, 2.2 A, phosphate soak (Cps4B [2])
O=[N+]([O-])c1ccc(OP(=O)(O)O)cc1 [para-nitrophenylphosphate] | it is a relatively poor catalyst with artificial substrate para-nitrophenylphosphate (pNPP) | 
O=P(O)(O)O [phosphate] |  | The phosphate is tightly bound to the active site by a multitude of interactions
